Like-named read-outs stand apart in the source and are kept apart here.
Tests used:
HeLa cells [1] = conditions: for Average CQI: CQI Formula 1
HeLa cells [2] = test: cells; conditions: Homo sapiens, read-out: Average CQI, % of control
HeLa cells [3] = test: Classical clonogenic end-point assay; assay type: cell-based; conditions: 0.25 μM for 30 min
[4] = exposure to non-cytotoxic doses
[5] = HeLa cells, 0.25 μM, normalized by 200 progenitors

CC(C)Cc1ccc(C(C)C(=O)O)cc1 (centres unmarked) [ibuprofen]
frequency of cells entering MD versus control cell populations (HeLa cells [1]; [4]): not observed

[Cd] [cadmium]
frequency of cells entering MD versus control cell populations (HeLa cells [1]; [4]): more frequently found than control cell populations

arsenic acid
frequency of cells entering MD versus control cell populations (HeLa cells [1]; [4]): more frequently found than control cell populations

CC(=O)Nc1ccc(O)cc1 [acetaminophen]
frequency of cells entering MD versus control cell populations (HeLa cells [1]): not observed

C=O [formaldehyde]
frequency of cells entering MD versus control cell populations (HeLa cells [1]): more frequently found than control cell populations | non-cytotoxic dose (HeLa cells [1]; human): 0.002 to 0.18 µM

CC[C@@]1(O)C(=O)OCc2c1cc1n(c2=O)Cc2cc3ccccc3nc2-1 [CPT, camptothecin]
activity at 0.1 µM (HeLa cells [2]): 102% | activity at 0.25 µM (HeLa cells [2]): 60% | activity at 1 µM (HeLa cells [2]): 22% | Average CQI (HeLa cells [1]; HeLa cells, 0.1 μM): 9.3 | CQI (Formula 2) (HeLa cells [1]; HeLa cells, 0.25 μM): 0.026 | total MD versus control (HeLa cells [1]; HeLa cells, 0.25 μM): reduced | Average CQI (HeLa cells [1]; HeLa cells, 0.25 μM): 6.2 | DD (number of dipolar division events) (HeLa cells [1]; [5]): 1059 ± 95 | MD (multipolar division, TD+QD+HD) (HeLa cells [1]; [5]): 27.0 ± 4.5 | QD (number of quadripolar division events) (HeLa cells [1]; [5]): 4.0 ± 1.2 | TD (number of tripolar division events) (HeLa cells [1]; [5]): 23.0 ± 3.2 | Total DV (total cell division, DD+TD+QD+HD) (HeLa cells [1]; [5]): 1086 ± 9.7 | Average CQI (HeLa cells [1]; HeLa cells, 1 μM): 1.8 | CD induction and cell growth suppression (HeLa cells [1]; HeLa cells, at non-cytotoxic dose (0.1 μM CPT, 1 μM MNNG)): neither CD induction nor cell growth suppression | non-cytotoxic dose (HeLa cells [1]; HeLa cells, by average CQI): 0.1 µM | sub-cytotoxic dose (HeLa cells [1]; HeLa cells, by average CQI): 0.25 µM | cell survival (HeLa cells [3]): 95%

From patent US8940498B2, “Biological assays for the characterization of cells using single-cell tracking and uses thereof” (priority 2012, dated 2015)
